The values below come from patent publication US6761919B2, “Ambient stable beverage” (priority 2000, dated 2004).

What all share (type): cell-based
For assay [1], the system named is yeast Saccharomyces cerevisiae X2180-1B. The assay can be described thus: Growth of yeast in matrix of tubes of Ready to Drink tea (0.14% tea) with preservatives and essential oil component, OD 600 nm at 14 days. To be noted: RTD tea pH 3.4, cinnamic acid 1-175 ppm, 14 days 25° C.; for tubes supporting yeast growth compared with control without essential oil (FIG. 13): benzoic acid 1-250 ppm; for tubes supporting yeast growth compared with control without essential oil (FIG. 1): sorbic acid 1-250 ppm; for tubes supporting yeast growth compared with control without essential oil (FIG. 19): sorbic acid+benzoic acid 1:1 1-250 ppm. The protocol:
The matrix of 30 ml tubes each contained 10 ml RTD tea, pH 3.4. […] Tubes were inoculated with 10^4 cells of the yeast Saccharomyces cerevisiae X2180-1B. Tubes were then incubated for 14 days at 25° C. to allow surviving yeasts to grow out. At 14 days growth was measured by optical density at 600 nm in x11 diluted samples, and blank values subtracted.
The matrix of 30 ml tubes each containing 10 ml RTD tea pH 3.4, all contained 100 ppm citral dimethyl acetal. […] Tubes were inoculated with 10^4 cells of the yeast Saccharomyces cerevisiae X2180-1B. Tubes were incubated for 14 days at 25° C. to allow surviving yeasts to grow out. At 14 days growth was measured by optical density at 600 nm in x11 diluted samples, and blank values subtracted.
The matrix of 30 ml tubes each containing 10 ml RTD tea pH 3.4, all contained 100 ppm cumic alcohol. […] Tubes were inoculated with 10^4 cells of the yeast Saccharomyces cerevisiae X2180-1B. Tubes were incubated for 14 days at 25° C. to allow surviving yeasts to grow out. At 14 days growth was measured by optical density at 600 nm in x11 diluted samples, and blank values subtracted.
The matrix of 30 ml tubes each containing 10 ml RTD tea pH 3.4, all contained 100 ppm citral. […] Tubes were inoculated with 10^4 cells of the yeast Saccharomyces cerevisiae X2180-1B. Tubes were incubated for 14 days at 25° C. to allow surviving yeasts to grow out. At 14 days growth was measured by optical density at 600 nm in x11 diluted samples, and blank values subtracted.
The matrix of 30 ml tubes each containing 10 ml RTD tea pH 3.4, all contained 50 ppm 3,7-dimethyl octanol. […] Tubes were inoculated with 10^4 cells of the yeast Saccharomyces cerevisiae X2180-1B. Tubes were incubated for 14 days at 25° C. to allow surviving yeasts to grow out. At 14 days growth was measured by optical density at 600 nm in x11 diluted samples, and blank values subtracted.
The matrix of 30 ml tubes each containing 10 ml RTD tea pH 3.4, all contained 100 ppm myrtenol. […] Tubes were inoculated with 10^4 cells of the yeast Saccharomyces cerevisiae X2180-1B. Tubes were incubated for 14 days at 25° C. to allow surviving yeasts to grow out. At 14 days growth was measured by optical density at 600 nm in x11 diluted samples, and blank values subtracted.
The matrix of 30 ml tubes each containing 10 ml RTD tea pH 3.4, all contained 100 ppm piperonyl acetate. […] Tubes were inoculated with 10^4 cells of the yeast Saccharomyces cerevisiae X2180-1B. Tubes were incubated for 14 days at 25° C. to allow surviving yeasts to grow out. At 14 days growth was measured by optical density at 600 nm in x11 diluted samples, and blank values subtracted.
The matrix of 30 ml tubes each containing 10 ml RTD tea pH 3.4, all contained 15 ppm trans, trans-2,4-decadienal. […] Tubes were inoculated with 10^4 cells of the yeast Saccharomyces cerevisiae X2180-1B. Tubes were incubated for 14 days at 25° C. to allow surviving yeasts to grow out. At 14 days growth was measured by optical density at 600 nm in x11 diluted samples, and blank values subtracted.
The matrix of 30 ml tubes each containing 10 ml RTD tea pH 3.4, all contained 100 ppm δ-decanolactone. […] Tubes were inoculated with 10^4 cells of the yeast Saccharomyces cerevisiae X2180-1B. Tubes were incubated for 14 days at 25° C. to allow surviving yeasts to grow out. At 14 days growth was measured by optical density at 600 nm in x11 diluted samples, and blank values subtracted.
The matrix of 30 ml tubes each containing 10 ml RTD tea pH 3.4, all contained 25 ppm citral dimethyl acetal and 35 ppm cumic alcohol. […] Tubes were inoculated with 10^4 cells of the yeast Saccharomyces cerevisiae X2180-1B. Tubes were incubated for 14 days at 25° C. to allow surviving yeasts to grow out. At 14 days growth was measured by optical density at 600 nm in x11 diluted samples, and blank values subtracted.
The matrix of 30 ml tubes each contained 10 ml RTD tea, pH 3.4. […]

In assay [2] the test system is spoilage mould Aspergillus niger POL10. The assay can be described thus: Growth of spoilage mould in RTD tea with preservatives and increasing citral dimethyl acetal, visual at 28 days. The settings on record: RTD tea pH 3.1, 0.14% tea; sorbic acid 200 ppm, cinnamic acid 60 ppm, EDTA 30 ppm; 10^4 conidiaspores; 28 days 25° C.; tested 1-400 ppm. The protocol: Growth of spoilage mould Aspergillus niger POL10 in 30 ml tubes each contained 10 ml RTD tea, pH 3.1, 0.14% tea. All tubes containing sorbic acid 200 ppm, cinnamic acid 60 ppm, EDTA 30 ppm. An essential oil component, citral dimethyl acetal, was added in increasing concentration to tubes, in the range 1-400 ppm. Tubes were inoculated with 10^4 conidiaspores of the mould Aspergillus niger POL10. Tubes were then incubated for 28 days at 25° C. to allow moulds to grow out. At 28 days growth was measured visually. Mould growth was visible in all tubes, excepting those containing >80 ppm citral dimethyl acetal.

In assay [3] the test system is yeast Saccharomyces cerevisiae X2180-1B. The assay can be described thus: Growth of yeast in matrix of tubes of synthetic soft drink (0% tea) with preservatives and essential oil component, OD 600 nm at 14 days. The settings on record: synthetic soft drink pH 3.4, 100 ppm essential oil component, cinnamic acid 1-175 ppm, 14 days 25° C. The protocol:
(§1) Synthetic soft drink contained glucose, 8%w/v, citric acid 3 g/l, potassium orthophosphate 1 g/l, magnesium chloride 0.1 g/l and yeast extract 0.1 g/l. The matrix of 30 ml tubes each contained 10 ml synthetic soft drink, pH 3.4. Sorbic acid was used in the range 1-250 ppm and cinnamic acid in the range 1-175 ppm. Tubes were inoculated with 10^4 cells of the yeast Saccharomyces cerevisiae X2180-1B. Tubes were then incubated for 14 days at 25° C. to allow surviving yeasts to grow out. At 14 days growth was measured by optical density at 600 nm in x11 diluted samples, and blank values subtracted.
as §1, with “each containing” for “each contained”, “soft drink” for “soft drink,”, “pH 3.4, all contained 100 ppm citral dimethyl acetal.” for “pH 3.4.”, “were” for “were then”
Synthetic soft drink contained glucose, 8%w/v, citric acid 3 g/l, potassium orthophosphate 1 g/l, magnesium chloride 0.1 g/l and yeast extract 0.1 g/l. The matrix of 30 ml tubes each contained 10 ml synthetic soft drink, pH 3.4. […] At 14 days growth was measured by optical density at 600 nm in x11 diluted samples, and blank values subtracted.
Synthetic soft drink contained glucose, 8%w/v, citric acid 3 g/l, potassium orthophosphate 1 g/l, magnesium chloride 0.1 g/l and yeast extract 0.1 g/l. […] At 14 days growth was measured by optical density at 600 nm in x11 diluted samples, and blank values subtracted.
Synthetic soft drink contained glucose, 8%w/v, citric acid 3 g/l, potassium orthophosphate 1 g/l, magnesium chloride 0.1 g/l and yeast extract 0.1 g/l. […] At 14 days growth was measured by optical density at 600 nm in x11 diluted samples, and blank values subtracted. […]

A further assay deals with fungi. The settings on record: Table I, preferred essential oils.
The mark [4] stands for this setting: 100 ppm essential oil component.

As for `CC(C)CCCC(C)CCO` (stereo not shown) [3,7-Dimethyl-1-octanol], in assay [1] (50 ppm essential oil component), the “tubes supporting yeast growth compared with control without essential oil (FIG. 13)” value is recorded as “very substantially fewer tubes supporting yeast growth”, the “tubes supporting yeast growth compared with control without essential oil (FIG. 1)” value is “very substantially fewer tubes supporting yeast growth” and the “tubes supporting yeast growth compared with control without essential oil (FIG. 19)” value is “very substantially fewer tubes supporting yeast growth”.

In the case of `COC(C=C(C)CCC=C(C)C)OC` [Citral dimethyl acetal], in assay [1] (setting [4]), the “tubes supporting yeast growth compared with control without essential oil (FIG. 13)” value is “very substantially fewer tubes supporting yeast growth”, the “tubes supporting yeast growth compared with control without essential oil (FIG. 1)” value is on record as “very substantially fewer tubes supporting yeast growth” and the “tubes supporting yeast growth compared with control without essential oil (FIG. 19)” value is on record as “very substantially fewer tubes supporting yeast growth”. Moreover, the “concentration at which no mould growth was visible” value in assay [2] is above 80 ppm. Further, the “tubes supporting yeast growth compared with control without essential oil (FIG. 17)” value in assay [3] (benzoic acid 1-250 ppm) was “very substantially fewer tubes supporting yeast growth”. Besides, the “tubes supporting yeast growth compared with control without essential oil (FIG. 11)” value in assay [3] (sorbic acid 1-250 ppm) is “very substantially fewer tubes supporting yeast growth”. In assay [3] (sorbic acid+benzoic acid 1:1 1-250 ppm), the “tubes supporting yeast growth compared with control without essential oil (FIG. 23)” value was “very substantially fewer tubes supporting yeast growth”.

Take `CC(C)=CCCC(C)=CC=O` [Citral]: the “tubes supporting yeast growth compared with control without essential oil (FIG. 1)” value in assay [1] (setting [4]) is “very substantially fewer tubes supporting yeast growth”.

Consider `CC(C)c1ccc(CO)cc1` [Cumic alcohol], for which, in assay [1] (setting [4]), the “tubes supporting yeast growth compared with control without essential oil (FIG. 1)” value is reported as “very substantially fewer tubes supporting yeast growth”.

On to `CC1(C)C2CC=C(CO)C1C2` (stereo not shown) [Myrtenol], for which the “tubes supporting yeast growth compared with control without essential oil (FIG. 1)” value in assay [1] (setting [4]) is on record as “very substantially fewer tubes supporting yeast growth”.

Turning to `CCCCCCCC(=O)O` [Octanoic acid (caprylic)], the “MIC (ppm)” value against fungi amounted to 115 ppm.

For the compound `CC(=O)OCc1ccc2c(c1)OCO2` [Piperonyl acetate], in assay [1] (setting [4]), the “tubes supporting yeast growth compared with control without essential oil (FIG. 1)” value is recorded as “very substantially fewer tubes supporting yeast growth”.

For `CCCCC/C=C/C=C/C=O` [trans,trans-2,4-Decadienal], the “tubes supporting yeast growth compared with control without essential oil (FIG. 1)” value in assay [1] (15 ppm essential oil component) is given as “very substantially fewer tubes supporting yeast growth”.
